The term IC50 denotes the point on the concentration scale where inhibition reaches its midpoint.

We go through one compound from patent publication EP1831198B1, “PYRIDINE CARBOXAMIDE DERIVATIVES FOR USE AS ANTICANCER AGENTS” (AstraZeneca AB, priority 2004, dated 2006).

This assay deals with human recombinant, purified wild type His-B-Raf protein kinase (Homo sapiens, UniProt P15056). In words: B-Raf in vitro ELISA assay. In kind it is biochemical. The following applies: phosphorylation of MEK1; 2.5 nM B-Raf, 0.15 µM MEK1, 10 µM ATP. The source says: Data was graphed and IC50s calculated using Excel Fit (Microsoft).
human recombinant, purified wild type His-B-Raf protein kinase, sequence (P15056 whole entry): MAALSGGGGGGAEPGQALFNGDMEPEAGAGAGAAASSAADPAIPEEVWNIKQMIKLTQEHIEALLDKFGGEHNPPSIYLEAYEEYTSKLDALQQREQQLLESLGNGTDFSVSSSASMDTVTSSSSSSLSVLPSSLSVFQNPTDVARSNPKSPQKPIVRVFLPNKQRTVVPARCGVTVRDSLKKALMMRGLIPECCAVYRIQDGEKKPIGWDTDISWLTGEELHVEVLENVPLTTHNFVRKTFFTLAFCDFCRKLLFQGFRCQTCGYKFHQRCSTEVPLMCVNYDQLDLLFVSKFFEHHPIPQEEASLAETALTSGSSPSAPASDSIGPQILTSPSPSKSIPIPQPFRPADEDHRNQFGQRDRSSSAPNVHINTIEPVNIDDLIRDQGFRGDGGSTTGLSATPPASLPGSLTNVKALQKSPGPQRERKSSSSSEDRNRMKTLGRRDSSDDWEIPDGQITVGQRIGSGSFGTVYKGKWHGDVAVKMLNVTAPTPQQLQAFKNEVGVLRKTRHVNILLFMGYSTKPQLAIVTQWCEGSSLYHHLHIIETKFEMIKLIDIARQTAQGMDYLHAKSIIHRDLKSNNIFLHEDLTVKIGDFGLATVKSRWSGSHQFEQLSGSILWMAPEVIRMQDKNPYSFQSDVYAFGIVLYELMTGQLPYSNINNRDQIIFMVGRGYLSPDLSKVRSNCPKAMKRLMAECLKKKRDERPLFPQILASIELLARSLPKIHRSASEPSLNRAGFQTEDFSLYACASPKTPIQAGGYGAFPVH

On to `Cc1ccc(NC(=O)c2cccc3c2OCC3)cc1C(=O)Nc1cccnc1` [Example 9, N-{4-Methyl-3-[(pyridin-3-ylamino)carbonyl]phenyl}-2,3-dihydro-1-benzofuran-7-carboxamide], for which the half-maximal inhibitory concentration (IC50) is 1.08 µM.
